Laboratory results: patent US11858921B2, “Uracil derivatives as TRPA1 inhibitors” (Boehringer Ingelheim International GmbH, priority 2021, dated 2024)

Key:
human TRPA1 ion channel = molecular target: T1, human TRPA1 ion channel (Homo sapiens, UniProt O75762); assay: Assay A: TRPA1 assay (FLIPR calcium, AITC agonism); format: cell-based; settings: read-out: hTRPA1 IC50
T1 construct: host or cells: HEK293
Protocol: A human HEK293 cell line over-expressing the human TRPA1 ion channel (Perkin Elmer, Product No. AX-004-PCL) is used as a test system for compound efficacy and potency. Compound activity is determined by measuring the effect of compounds on intracellular calcium concentration induced by AITC (Allylisothiocyanat) agonism in a FLIPRtetra system (Molecular Devices).
The cells are obtained as frozen cells in cryo-vials and stored until use at −150° C.
Cells are grown in culture medium (MEM/EBSS medium with 10% FCS and 0.4 mg/ML Geneticin). […] For sub-culturing cells are detached from flasks by Versene. At the day before the assay, cells are detached, washed twice with medium (MEM/EBSS medium with 10% FCS) and 20000 cells in 20 μl/well are seeded to Poly D-Lysin biocoated 384-well plates (black, clear bottom, Cat. 356697) from Corning. Plates are incubated for 24 hours at 37° C./5% CO2 before use in the assay.
The test compounds are dissolved in 100% DMSO at a concentration of 10 mM and in a first step diluted in DMSO to a concentration of 5 mM, followed by serial dilution steps in 100% DMSO. Dilution factor and number of dilution steps may vary according to needs. Typically 8 different concentrations by 1:5 dilutions are prepared, further intermediate dilutions (1:20) of the substances are carried out with HBSS/HEPES buffer (1×HEPES, Cat. 14065 from Gibco, 20 mM HEPES, Cat. 83264 from SIGMA, 0.1% BSA Cat. 11926 from Invitrogen, pH 7.4
At the assay day cells are washed 3× with assay puffer, 20 μL buffer remaining in the wells after washing. 10 μL Ca6 kit (Cat. R8191 MolecularDevices) loading buffer in HBSS/HEPES is added to the cells and the plates are incubated with lid for 120 minutes at 37°/5% CO2. 10 μL of compound or controls in HBSS/HEPES buffer/5% DMSO from the intermediate dilution plate are carefully added to the wells. […] Finally 10 μL of the agonist AITC 50 μM dissolved in HBSS/HEPES buffer/0.05% DMSO (final concentration 10 μM) is added to the wells followed by an additional read on the FLIPRtetra device for 10 minutes. The area under the signal curve (AUC) after AITC addition is used for IC50/% inhibition calculations Data evaluation and calculation:
Each assay microtiter plate contains wells with vehicle (1% DMSO) controls instead of compound as controls for AITC induced luminescence (100% CTL; high controls) and wells with vehicle controls without AITC as controls for non-specific changes in luminescence (0% CTL; low controls).
The analysis of the data is performed by the calculation of the area under signal curve of the individual wells. Based on this values the % value for the measurement of each substance concentration is calculated (AUC(sample)−AUC(low))*100/(AUC(high)−AUC(low)) using MegaLab software (in house development). The IC50 values are calculated from the % control values using MegaLab software. Calculation: [y=(a−d)/(1+(x/c)^b)+d], a=low value, d=high value; x=conc M; c=IC50 M; b=hill; y=% ctrl

[1] = Assay B: Microsomal clearance; format: in vitro ADME, human; settings: pooled liver microsomes 1 mg/ml, test compound 1 μM, 37° C., NADPH
Protocol: Assay B: Microsomal Clearance:
The metabolic degradation of the test compound is assayed at 37° C. with pooled liver microsomes. The final incubation volume of 100 μl per time point contains TRIS buffer pH 7.6 at RT (0.1 M), magnesium chloride (5 mM), microsomal protein (1 mg/ml) and the test compound at a final concentration of 1 μM.
Following a short preincubation period at 37° C., the reactions are initiated by addition of beta-nicotinamide adenine dinucleotide phosphate, reduced form (NADPH, 1 mM) and terminated by transferring an aliquot into solvent after different time points (0, 5, 15, 30, 60 min). Additionally, the NADPH-independent degradation is monitored in incubations without NADPH, terminated at the last time point. The [%] remaining test compound after NADPH independent incubation is reflected by the parameter c(control) (metabolic stability). The quenched incubations are pelleted by centrifugation (10000 g, 5 min).
An aliquot of the supernatant is assayed by LC-MS/MS for the amount of parent compound. The half-life (t½ INVITRO) is determined by the slope of the semilogarithmic plot of the concentration-time profile.
The intrinsic clearance (CL_[…]) is calculated by considering the amount of protein in the incubation: CL_[…] [μl/min/mg protein]=(Ln 2/(half-life [min]*protein content [mg/ml]))*1000 CL_[…]_INVIVO [ml/min/kg]=(CL_[…] [μL/min/mg protein]×MPPGL [mg protein/g liver]×liver factor [g/kg bodyweight])/1000 Qh[%]=CL[ml/min/kg]/hepatic blood flow [ml/min/kg])
(§1) Hepatocellularity, human: 120×10e6 cells/g liver
(§2) Liver factor, human: 25.7 g/kg bodyweight
(§3) Blood flow, human: 21 ml/(min×kg)

[2] = Assay C: Hepatocyte clearance; format: in vitro ADME, human; settings: hepatocyte suspension, 5% species serum, test compound 1 μM, up to 6 h
Protocol: Assay C: Hepatocyte Clearance
The metabolic degradation of the test compound is assayed in a hepatocyte suspension. Hepatocytes (cryopreserved) are incubated in Dulbecco's modified eagle medium (supplemented with 3.5 μg glucagon/500 mL, 2.5 mg insulin/500 mL and 3.75 mg/500 mL hydrocortison) containing 5% species serum.
The cells are incubated for six hours (incubator, orbital shaker) and samples (25 μl) are taken at 0, 0.5, 1, 2, 4 and 6 hours. Samples are transferred into acetonitrile and pelleted by centrifugation (5 min). The supernatant is transferred to a new 96-deepwell plate, evaporated under nitrogen and resuspended.
Decline of parent compound is analyzed by HPLC-MS/MS
CLint is calculated as follows CL_[…]=Dose/AUC=(CO/CD)/(AUD+clast/k)×1000/60. C0: initial concentration in the incubation [μM], CD: cell density of vital cells [10e6 cells/mL], AUD: area under the data [μM×h], clast: concentration of last data point [μM], k: slope of the regression line for parent decline [h−1].
The calculated in vitro hepatic intrinsic clearance can be scaled up to the intrinsic in vivo hepatic Clearance and used to predict hepatic in vivo blood clearance (CL) by the use of a liver model (well stirred model). CL_[…]_INVIVO [ml/min/kg]=(CL_[…] [μL/min/10e6 cells]×hepato-cellularity [10e6 cells/g liver]×liver factor [g/kg bodyweight])/1000 CL[ml/min/kg]=CL_[…]_INVIVO [ml/min/kg]×hepatic blood flow [ml/min/kg]/(CL_[…]_INVIVO [ml/min/kg]+hepatic blood flow [ml/min/kg]) Qh[%]=CL[ml/min/kg]/hepatic blood flow [ml/min/kg])
as §1, §2, §3

T1 sequence (O75762 whole entry): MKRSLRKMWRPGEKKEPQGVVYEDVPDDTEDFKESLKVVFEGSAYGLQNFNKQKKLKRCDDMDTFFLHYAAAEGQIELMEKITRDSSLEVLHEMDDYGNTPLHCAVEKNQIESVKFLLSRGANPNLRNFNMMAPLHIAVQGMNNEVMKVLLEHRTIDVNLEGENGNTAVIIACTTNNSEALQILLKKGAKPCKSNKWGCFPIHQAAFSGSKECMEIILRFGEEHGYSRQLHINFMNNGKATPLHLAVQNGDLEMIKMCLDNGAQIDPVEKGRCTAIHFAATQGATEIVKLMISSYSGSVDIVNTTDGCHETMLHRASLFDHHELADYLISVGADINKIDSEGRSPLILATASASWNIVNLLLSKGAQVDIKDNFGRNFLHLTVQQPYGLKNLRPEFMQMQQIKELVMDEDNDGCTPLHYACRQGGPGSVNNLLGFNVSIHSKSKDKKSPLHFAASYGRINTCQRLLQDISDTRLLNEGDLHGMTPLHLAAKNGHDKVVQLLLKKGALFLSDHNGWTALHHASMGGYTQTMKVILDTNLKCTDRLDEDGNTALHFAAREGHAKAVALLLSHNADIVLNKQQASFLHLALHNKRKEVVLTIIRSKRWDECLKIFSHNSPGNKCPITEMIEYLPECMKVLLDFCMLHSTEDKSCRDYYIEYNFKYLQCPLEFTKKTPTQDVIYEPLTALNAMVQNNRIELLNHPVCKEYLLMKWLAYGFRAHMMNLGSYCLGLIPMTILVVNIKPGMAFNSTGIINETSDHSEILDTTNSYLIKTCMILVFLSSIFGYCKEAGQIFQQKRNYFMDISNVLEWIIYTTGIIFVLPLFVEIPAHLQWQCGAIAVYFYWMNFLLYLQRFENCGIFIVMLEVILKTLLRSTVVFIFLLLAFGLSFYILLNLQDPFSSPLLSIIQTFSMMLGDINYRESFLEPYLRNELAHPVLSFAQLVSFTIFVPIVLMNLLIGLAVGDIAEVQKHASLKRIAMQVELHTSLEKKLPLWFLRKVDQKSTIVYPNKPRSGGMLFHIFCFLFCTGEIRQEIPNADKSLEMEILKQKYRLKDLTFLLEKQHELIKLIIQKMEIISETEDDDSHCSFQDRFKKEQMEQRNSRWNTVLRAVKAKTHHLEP

IC50 (human TRPA1 ion channel)	human LM [% Qh] [1]	human Hepatocytes [% Qh] [2]	Compound
38 nM	<23 % Qh	15 % Qh	Cn1c(=O)c(C(N)=O)cn(Cc2nc(C[C@H](O)c3ccc(Cl)cc3)no2)c1=O [Example 1, 1-({3-[(2S)-2-(4-chlorophenyl)-2-hydroxyethyl]-1,2,4-oxadiazol-5-yl}methyl)-3-methyl-2,4-dioxo-1,2,3,4-tetrahydropyrimidine-5-carboxamide]
84 nM	<23 % Qh	8 % Qh	Cc1ccc([C@@H](O)Cc2noc(Cn3cc(C(N)=O)c(=O)n(C)c3=O)n2)cc1 [Example 7]
57 nM	24 % Qh	17 % Qh	Cn1c(=O)c(C(N)=O)cn(Cc2nc(C[C@H](O)c3ccc(I)cc3)no2)c1=O [Example 6]
6 nM	<23 % Qh	24 % Qh	Cn1c(=O)c(C(N)=O)cn(Cc2nc(C[C@H](O)c3cc4ccccc4s3)no2)c1=O [Example 2]
15 nM	<23 % Qh	21 % Qh	Cn1c(=O)c(C(N)=O)cn(Cc2nc(C[C@H](O)c3cc4cc(Cl)ccc4o3)no2)c1=O [Example 4]
33 nM	<23 % Qh	15 % Qh	Cn1c(=O)c(C(N)=O)cn(Cc2nc(C[C@H](O)c3cc4cc(F)ccc4o3)no2)c1=O [Example 5]
8 nM	43 % Qh	17 % Qh	Cn1c(=O)c(C(N)=O)cn(Cc2nc(C[C@H](O)c3cc4ccc(F)cc4s3)no2)c1=O [Example 3]
